According to patent US20230111914A1, “SYNTHETIC TRITERPENOIDS WITH NITROGEN-BASED SUBSTITUENTS AT C-17 AND METHODS OF USE THEREOF” (REATA PHARMACEUTICALS, INC., priority 2019, published 2023):
Values joined by “and” are separate entries in the source; they are usually repeats but may differ in a detail not shown here. Equal values may be shown once. Read-outs that look alike come from different tables or passages of the source. Marks after values point to notes of the source that are not given here.

Legend:
[1] = system: IFNγ-induced NO production in RAW 264.7 cells; assay: Nitric oxide suppression assay (IFNγ-induced NO production, Griess nitrite readout); format: cell-based, mouse; conditions: for IC50: 2 h pretreatment, 20 ng/mL interferon gamma 24 h, average of trials per footnote, read-out: NO IC50
[2] = system: AREc32 reporter cell line (luciferase reporter under eight copies of the rat GSTA2 ARE sequence); assay: AREc32 luciferase reporter activation; format: cell-based, human; conditions: for EC (2-fold): Homo sapiens, Arec32, concentration that increases the luminescence signal 2-fold above vehicle, 19 h treatment, read-out: AREc32 EC2X (Mean ± SD)
[3] = Mus musculus, RAW264.7, RAW 264.7 cells

SMILES	NO IC50 Rel. to RTA 402 [1]	IC50 [1, 3]	AREc32 EC2X Relative to RTA 402 (Mean ± SD) [2]	EC (2-fold) [2]	IC50 ([1]; RAW 264.7 cells)	times more active (NO IC50) than 63170 relative to RTA 402 [1]	times more active (NO IC50) than 63172 relative to RTA 402 [1]	times more active (NO IC50) than 63183 relative to RTA 402 [1]
CC1(C)CC[C@]2(CNC(=O)OC(C)(C)C)CC[C@]3(C)[C@H](C(=O)C=C4[C@@]5(C)C=C(C#N)C(=O)C(C)(C)[C@@H]5CC[C@]43C)[C@@H]2C1 [CC1, reference compound]	2.06 ± 0.56^e fold	5.04 ± 2.62 nM	2.1 ± 0.00^a fold	0.0211 ± 0.00475 µM				
CC1(C)CC[C@]2(CN)CC[C@]3(C)[C@H](C(=O)C=C4[C@@]5(C)C=C(C#N)C(=O)C(C)(C)[C@@H]5CC[C@]43C)[C@@H]2C1 [CC2, reference compound]	1.55 fold and 1.55 ± 0.30^e fold	3.15 nM	1.6 ± 0.17^g fold	0.0161 ± 0.00081 µM				
CC1(C)CC[C@]2(N)CC[C@]3(C)[C@H](C(=O)C=C4[C@@]5(C)C=C(C#N)C(=O)C(C)(C)[C@@H]5CC[C@]43C)[C@@H]2C1 [CC4, reference compound]	2.41 fold and 2.41 ± 0.49^b fold	3.75 nM						
CC(=O)N[C@]12CCC(C)(C)C[C@H]1[C@H]1C(=O)C=C3[C@@]4(C)C=C(C#N)C(=O)C(C)(C)[C@@H]4CC[C@@]3(C)[C@]1(C)CC2 [Compound 63170, reference compound]	4.95 fold	8.45 nM						
CNC(=O)N[C@]12CCC(C)(C)C[C@H]1[C@H]1C(=O)C=C3[C@@]4(C)C=C(C#N)C(=O)C(C)(C)[C@@H]4CC[C@@]3(C)[C@]1(C)CC2 [Compound 63172, reference compound]	7.73 fold	21.6 nM						
C=CC(=O)N[C@]12CCC(C)(C)C[C@H]1[C@H]1C(=O)C=C3[C@@]4(C)C=C(C#N)C(=O)C(C)(C)[C@@H]4CC[C@@]3(C)[C@]1(C)CC2 [Compound 63183, reference compound]	1.35 fold	4 nM			2.39 nM			
CCC(=O)N[C@]12CCC(C)(C)C[C@H]1[C@H]1C(=O)C=C3[C@@]4(C)C=C(C#N)C(=O)C(C)(C)[C@@H]4CC[C@@]3(C)[C@]1(C)CC2 [Compound 63189, reference compound]	4.06 fold	7.2 nM						
CC1(C)CC[C@]2(c3nn[nH]n3)CC[C@]3(C)[C@H](C(=O)C=C4[C@@]5(C)C=C(C#N)C(=O)C(C)(C)[C@@H]5CC[C@]43C)[C@@H]2C1 [Compound 63229, reference compound]	>75.85 fold	> 200 nM						
CC1(C)CC[C@]2(NC(=O)C3CC3)CC[C@]3(C)[C@H](C(=O)C=C4[C@@]5(C)C=C(C#N)C(=O)C(C)(C)[C@@H]5CC[C@]43C)[C@@H]2C1 [Compound 63236, reference compound]	57.25 fold				143 nM			
C[C@@H]1C(=O)C(C#N)=C[C@]2(C)C3=CC(=O)[C@@H]4[C@@H]5CC(C)(C)CC[C@]5(NC(=O)C5CC5)CC[C@@]4(C)[C@]3(C)CC[C@@H]12 [Compound 63866, reference compound]	1.16 fold	1.43 nM						
CC(=O)NC[C@]12CCC(C)(C)C[C@H]1[C@H]1C(=O)C=C3[C@@]4(C)C=C(C#N)C(=O)C(C)(C)[C@@H]4CC[C@@]3(C)[C@]1(C)CC2 [Compound T3]	0.17 fold and 0.17 ± 0.04^e fold	0.44 nM	0.2 ± 0.08^a fold	0.0024 ± 0.00044 µM		more than 29 times		
CN(C[C@]12CCC(C)(C)C[C@H]1[C@H]1C(=O)C=C3[C@@]4(C)C=C(C#N)C(=O)C(C)(C)[C@@H]4CC[C@@]3(C)[C@]1(C)CC2)C(=O)OC(C)(C)C [Compound T5]	6.04 ± 2.02^d fold	14.2 ± 6.51 nM	3.9 ± 0.36^a fold	0.0425 ± 0.00947 µM				
CNC[C@]12CCC(C)(C)C[C@H]1[C@H]1C(=O)C=C3[C@@]4(C)C=C(C#N)C(=O)C(C)(C)[C@@H]4CC[C@@]3(C)[C@]1(C)CC2 [Compound T6]	1.60 ± 0.23^e fold	3.35 ± 1.62 nM	1.2 ± 0.35^a fold	0.0169 ± 3e-05 µM				
CC(=O)N(C)C[C@]12CCC(C)(C)C[C@H]1[C@H]1C(=O)C=C3[C@@]4(C)C=C(C#N)C(=O)C(C)(C)[C@@H]4CC[C@@]3(C)[C@]1(C)CC2 [Compound T7]	0.49 ± 0.14^e fold	0.84 ± 0.37 nM	0.5 ± 0.14^a fold	0.0068 ± 3e-05 µM				
CNC(=O)NC[C@]12CCC(C)(C)C[C@H]1[C@H]1C(=O)C=C3[C@@]4(C)C=C(C#N)C(=O)C(C)(C)[C@@H]4CC[C@@]3(C)[C@]1(C)CC2 [Compound T8]	0.21 fold and 0.21 ± 0.05^d fold	0.46 nM	0.2 ± 0.06^a fold	0.0028 ± 4e-05 µM			roughly 37 times	
CNC(=O)N(C)C[C@]12CCC(C)(C)C[C@H]1[C@H]1C(=O)C=C3[C@@]4(C)C=C(C#N)C(=O)C(C)(C)[C@@H]4CC[C@@]3(C)[C@]1(C)CC2 [Compound T9]	0.38 ± 0.15^e fold	0.7 ± 0.18 nM	0.5 ± 0.20^a fold	0.0072 ± 0.00077 µM				

SMILES	NO IC50 Rel. to RTA 402 [1]	IC50 [1, 3]	AREc32 EC2X Relative to RTA 402 (Mean ± SD) [2]	EC (2-fold) [2]	IC50 ([1]; RAW 264.7 cells)	times more active (NO IC50) than 63170 relative to RTA 402 [1]	times more active (NO IC50) than 63172 relative to RTA 402 [1]	times more active (NO IC50) than 63183 relative to RTA 402 [1]
CC1(C)CC[C@]2(CNCCO)CC[C@]3(C)[C@H](C(=O)C=C4[C@@]5(C)C=C(C#N)C(=O)C(C)(C)[C@@H]5CC[C@]43C)[C@@H]2C1 [Compound T12]	4.07 ± 1.08^e fold	7.47 ± 0.85 nM	1.7^e fold	0.0218 µM				
CC1(C)CC[C@]2(CN3CCOC3=O)CC[C@]3(C)[C@H](C(=O)C=C4[C@@]5(C)C=C(C#N)C(=O)C(C)(C)[C@@H]5CC[C@]43C)[C@@H]2C1 [Compound T13]	0.65 ± 0.21^e fold	1.74 ± 0.55 nM	0.5^e fold	0.00512 µM				
CC1(C)CC[C@]2(CN3CCNC3=O)CC[C@]3(C)[C@H](C(=O)C=C4[C@@]5(C)C=C(C#N)C(=O)C(C)(C)[C@@H]5CC[C@]43C)[C@@H]2C1 [Compound T14]	0.51 ± 0.09^e fold	0.89 ± 0.08 nM	0.4^e fold	0.00437 µM				
CN1CCN(C[C@]23CCC(C)(C)C[C@H]2[C@H]2C(=O)C=C4[C@@]5(C)C=C(C#N)C(=O)C(C)(C)[C@@H]5CC[C@@]4(C)[C@]2(C)CC3)C1=O [Compound T15]	0.64 ± 0.26^d fold	1.18 ± 0.5 nM	0.5^e fold	0.00607 µM				
C=CC(=O)NC[C@]12CCC(C)(C)C[C@H]1[C@H]1C(=O)C=C3[C@@]4(C)C=C(C#N)C(=O)C(C)(C)[C@@H]4CC[C@@]3(C)[C@]1(C)CC2 [Compound T16]	0.21 fold and 0.21 ± 0.05^d fold	0.37 nM	0.2 ± 0.05^f fold	0.002 ± 0.00018 µM				more than 6 times
CC1(C)CC[C@]2(N3CCNC3=O)CC[C@]3(C)[C@H](C(=O)C=C4[C@@]5(C)C=C(C#N)C(=O)C(C)(C)[C@@H]5CC[C@]43C)[C@@H]2C1 [Compound T30]	3.68 ± 0.33^d fold	15 ± 2.92 nM						
CC1(C)CC[C@]2(n3cc[nH]c3=O)CC[C@]3(C)[C@H](C(=O)C=C4[C@@]5(C)C=C(C#N)C(=O)C(C)(C)[C@@H]5CC[C@]43C)[C@@H]2C1 [Compound T45]	4.02 ± 0.61^d fold	16.4 ± 2.94 nM						
CC1(C)CC[C@]2(CN3C(=O)CCN3C(=O)OC(C)(C)C)CC[C@]3(C)[C@H](C(=O)C=C4[C@@]5(C)C=C(C#N)C(=O)C(C)(C)[C@@H]5CC[C@]43C)[C@@H]2C1 [Compound T50]	1.17 ± 0.18^d fold	4.82 ± 1.3 nM						
CN1CC(=O)N([C@]23CCC(C)(C)C[C@H]2[C@H]2C(=O)C=C4[C@@]5(C)C=C(C#N)C(=O)C(C)(C)[C@@H]5CC[C@@]4(C)[C@]2(C)CC3)CC1=O [Compound T54]	16.18 ± 3.50^e fold	64.6 ± 19.7 nM						
CC1(C)CC[C@]2(N(NC(=O)OC(C)(C)C)C(=O)OC(C)(C)C)CC[C@]3(C)[C@H](C(=O)C=C4[C@@]5(C)C=C(C#N)C(=O)C(C)(C)[C@@H]5CC[C@]43C)[C@@H]2C1 [Compound T55]	17.42 ± 0.43^e fold	68.9 ± 10 nM						
CC1(C)CC[C@]2(n3nccc3C(F)(F)F)CC[C@]3(C)[C@H](C(=O)C=C4[C@@]5(C)C=C(C#N)C(=O)C(C)(C)[C@@H]5CC[C@]43C)[C@@H]2C1 [Compound T59]	12.08 ± 2.93^d fold	49.5 ± 13.8 nM						
CC1(C)CC[C@]2(n3ccc(C(F)(F)F)n3)CC[C@]3(C)[C@H](C(=O)C=C4[C@@]5(C)C=C(C#N)C(=O)C(C)(C)[C@@H]5CC[C@]43C)[C@@H]2C1 [Compound T60]	11.32 ± 1.49^e fold	45.1 ± 10.6 nM						
CN1CCN([C@]23CCC(C)(C)C[C@H]2[C@H]2C(=O)C=C4[C@@]5(C)C=C(C#N)C(=O)C(C)(C)[C@@H]5CC[C@@]4(C)[C@]2(C)CC3)CC1=O [Compound T61]	3.18 ± 0.67^d fold	13.2 ± 3.78 nM						
CC1(C)CC[C@]2(CN3CC(O)C3)CC[C@]3(C)C(O)(C(=O)C=C4[C@@]5(C)C=C(C#N)C(=O)C(C)(C)[C@@H]5CC[C@]43C)[C@@H]2C1 (some centres unmarked) [Compound T64]	1.64 ± 0.16^e fold	3.82 ± 1.76 nM						
CC1(C)CC[C@]2(NC(=O)C3CC3)CC[C@]3(C)[C@H](C(=O)C=C4[C@@]5(C)C=C(C#N)C(=O)C(C)(C)[C@@H]5CC[C@]43C)[C@@H]2C1 [Compound T68]	6.51 ± 1.38^i fold				11.4 ± 5.17 nM			
